Assay results reported in PMC4297217 (Therapeutic Drug Monitoring, 2015).
Each block holds one molecule with its values, some of them ahead of it.

What was measured:
[1] = Citalopram serum concentration-to-dose
[2] = Escitalopram serum concentration-to-dose; conditions: patients aged 80 years; combined linear and square age model
[3] = Sertraline serum concentration-to-dose; type: in vivo, patients; conditions: concomitant PPI vs control group without PPI
[4] = with omeprazole, cited from earlier work

SMILES: CN(C)CCCC1(c2ccc(F)cc2)OCc2cc(C#N)ccc21 (stereo not drawn) [Citalopram, citalopram]
Citalopram C/D ratio, age effect ([1]; patients aged 80 years, combined linear and square age model): roughly doubled

SMILES: Cc1c(OCC(F)(F)F)ccnc1C[S+]([O-])c1nc2ccccc2[nH]1 (stereo not drawn) [Lansoprazole, lansoprazole]
Expected Sertraline C/D Ratio Percent Change [3]: no significant differences

SMILES: COc1ccc2[nH]c([S+]([O-])Cc3ncc(C)c(OC)c3C)nc2c1 (stereo not drawn) [Omeprazole, omeprazole]
Expected Sertraline C/D Ratio Percent Change [3]: no significant differences | increase in the concentration of R-citalopram ([4]; 9 healthy subjects): 25% | increase in the concentration of S-citalopram ([4]; 9 healthy subjects): ~2 fold | mean increase in the plasma concentration of escitalopram ([4]; healthy volunteers): ~100%

Results, then the molecule that gave them:

Escitalopram C/D ratio, age effect [2]: roughly doubled
SMILES: CN(C)CCC[C@@]1(c2ccc(F)cc2)OCc2cc(C#N)ccc21 [Escitalopram, escitalopram]

Expected Sertraline C/D Ratio Percent Change [3]: no significant differences | Expected Citalopram C/D Ratio Percent Change ([1]; concomitant PPI vs control group without PPI): No significant effect
SMILES: COc1ccnc(C[S+]([O-])c2nc3ccc(OC(F)F)cc3[nH]2)c1OC (stereo not drawn) [Pantoprazole, pantoprazole]
